Measurements: patent publication US6548634B1, “Synthetic peptides having FGF receptor affinity” (priority 1998, dated 2003)
Like-named read-outs stand apart in the source and are kept apart here. Where a SMILES comes first, the peptide text is derived from it. Where no end group is shown, it is not given here.

Columns and labels:
Swiss 3T3 fibroblasts = assay: BrdU incorporation (mitogenesis) in Swiss 3T3 fibroblasts; assay type: cell-based; conditions: for mitogenic activity in Swiss 3T3: BrdU incorporation
Description: 6×Histidine-tagged Clone 19-jun protein (FIG. 1A) was expressed in bacteria and purified by metal affinity chromatography as described in Example 5. Assay of BrdU incorporation, a measure of entry of cells into S-phase and therefore of mitogenesis, was performed according to manufacturers instructions (Cell proliferation ELISA, BrdU, Cat. No. 1-647-229, Boehringer-Mannheim, Indianapolis, Ind.). Briefly, 1×10^4 Swiss 3T3 cells per well were plated on gelatin-coated 96-well microtiter plates in complete media (DMEM, 10% FCS, antibiotics), incubated 24 hours, and the media changed to quiescent media for an addition 24 hours (DMEM containing 0.5 mg/ml bovine serum albumin, 1 μg/ml insulin, 5 μg/ml transferrin, antibiotics). The cells were then treated with bFGF or Clone 19-jun protein at the indicated concentrations in the presence of 15 U/ml heparin. 18 hours later, BrdU was added, the cells incubated an additional 4 hours, and assayed as described. […] Heparin alone had no effect, nor did a control protein expressed and purified in the same manner in which the C19 sequence was deleted.

[1] = target: T1, FGFR1c extracellular domain-IgG fusion protein (Homo sapiens, UniProt P11362); assay: Eu-labeled FGFR-IgG displacement from immobilized phagemid; assay type: binding; conditions: phage-displayed peptide, FIG. 7, read-out: IC50, displacement of Europium-labeled FGFR-IgG by unlabeled FGFR-IgG
T1 construct: human FGFR Ic (residues 1-377); made in house
T1 sequence (P11362 22-377): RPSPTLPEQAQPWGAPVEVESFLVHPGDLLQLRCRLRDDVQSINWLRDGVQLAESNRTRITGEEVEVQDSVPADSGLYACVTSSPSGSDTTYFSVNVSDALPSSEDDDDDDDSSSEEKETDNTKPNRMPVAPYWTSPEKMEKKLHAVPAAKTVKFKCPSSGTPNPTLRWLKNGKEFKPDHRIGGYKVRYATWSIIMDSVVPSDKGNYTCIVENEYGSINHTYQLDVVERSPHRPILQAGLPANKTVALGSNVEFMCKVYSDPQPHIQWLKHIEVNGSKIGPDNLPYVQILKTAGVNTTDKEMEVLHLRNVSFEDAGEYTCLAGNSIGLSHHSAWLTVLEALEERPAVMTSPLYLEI
Description: The immobilization of phagemid using antibodies, followed by probing with selected ligand in an ELISA format has been reported previously (Valadon, P. & Scharff, M. D., 1996 J. Immunol. Methods 197, 171-179). We developed a more sensitive detection method using Europium chelate-conjugated target receptor.
Nunc Maxisorp 96-well plates were coated with […] anti-M13 antibody in […] 50 mM Na2CO3 pH 9.6 and blocked using the conditions described in Example 2. Phagemid (˜10^11 cfu) were applied to wells in binding buffer for 1 h and washed 6 times with PBS, 0.05% Tween 20, and 2 times with Delphia Wash Buffer (E&G Wallac). Serial dilutions of unlabeled FGFR-IgG were added along with a constant amount (500 pM−2.5 nM) of Europium-labeled FGFR-IgG in Delphia Assay Buffer (prepared according to instructions from E&G Wallac), and reactions allowed to incubate for 2 h. Wells were washed 8× in Delphia Wash Buffer, treated with 100 μL of Delphia Enhancer Solution and fluorescence measured. IC50 values were determined from four-parameter fits to displacement plots.

PC12 cells = assay: PC12 cell neurite outgrowth; assay type: cell-based; conditions: 1 nM bFGF or 2 nM C19-jun, 15 U/ml heparin, 4 days
Description: 1×10^4 PC12 cells per well were plated on mouse laminin-and-poly-L-lysine-coated 24-well plates in 1 ml of media (RPMI 1640, 10% horse serum, 5% FCS, antibiotics) and stimulated with 1 nM bFGF or 2 nM C19-jun protein in the presence of 15 U/ml heparin for 4 days.

FGFR = FGFR autophosphorylation in Swiss 3T3 cells (anti-FGFR IP, anti-phosphotyrosine blot); assay type: cell-based; conditions: 1.0 nM bFGF or 50 nM C19jun, 15 U/ml heparin, 15 minutes
Description: (§1) To determine whether C19jun could activate FGF receptors in vivo, Swiss 3T3 cells were treated with basic FGF (bFGF) or purified C19jun protein. Cell extracts were then immunoprecipitated with anti-FGFR antibodies, analyzed by SDS-PAGE and immunoblotted with anti-phosphotyrosine antibodies. Extracts from bFGF and C19jun-stimulated 293 cells expressing FGFR1c were also immunoblotted with phospho-MAP Kinase-specific antibodies.
(§2) Swiss 3T3 fibroblasts, or 293 cells expressing full-length FGFRIc were incubated in quiescing media (DMEM, 1 μg/ml insulin, 5 μg/ml transferrin, 0.5 mg/ml BSA) for 24-48 hrs, and then stimulated with 1.0 nM bFGF or 50 nM refolded C19jun protein in the presence of 15 U/ml heparin for 15 minutes at 37° C. The cells were lysed and aliquots of lysate containing equal amounts of total protein were either analyzed directly by immunoblotting with phospho-MAPKspecific antibodies and anti-total MAPK antisera (New England Biolabs) or immunoprecipitated with anti-FGFR antisera and immunoblotted with anti-phosphotyrosine antibodies (Upstate Biotechnology, Inc.). Both bFGF and C19jun induced FGFR autophosphorylation and MAP kinase phosphorylation.

[2] = system: L6 myoblast cell lines stably expressing FGFR1c; assay: c-fos mRNA expression in L6 myoblasts stably expressing FGFR1c; assay type: cell-based
[3] = system: 293 cells expressing full-length FGFR1c; assay: MAP kinase phosphorylation in 293 cells expressing FGFR1c; assay type: cell-based; conditions: 1.0 nM bFGF or 50 nM C19jun, 15 U/ml heparin, 15 minutes
Description: as §1, §2

control L6 cells = assay: c-fos mRNA expression in control L6 cells that do not express FGFR; assay type: cell-based
FGFR1c ECD = target: T2, FGFR1c ECD (Homo sapiens, UniProt P11362); assay: BIAcore real-time kinetic analysis on immobilized FGFR1c ECD; assay type: binding; conditions: absence of heparin
T2 construct: human FGFR Ic (residues 1-377); made in house
T2 sequence (P11362 22-377): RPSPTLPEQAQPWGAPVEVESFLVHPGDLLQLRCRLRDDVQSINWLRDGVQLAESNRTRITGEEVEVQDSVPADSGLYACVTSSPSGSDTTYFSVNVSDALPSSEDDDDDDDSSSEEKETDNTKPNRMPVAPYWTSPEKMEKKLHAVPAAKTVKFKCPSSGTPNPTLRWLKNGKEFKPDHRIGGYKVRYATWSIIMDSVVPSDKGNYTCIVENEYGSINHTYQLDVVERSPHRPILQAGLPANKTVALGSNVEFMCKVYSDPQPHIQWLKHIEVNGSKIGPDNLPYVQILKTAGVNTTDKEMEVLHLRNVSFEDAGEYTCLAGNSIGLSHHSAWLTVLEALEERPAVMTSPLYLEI
Description: Apparent affinities for immobilized FGFR1c ECD were determined using BIAcore real-time kinetic analysis in the absence of heparin.
Protein representing the linker segments and c-jun leucine zipper without the C19 sequence (FIG. 2) was expressed, purified, and characterized as for C19jun. C19 peptide with an intrapeptide disulfide bond was synthesized, purified by HPLC, and characterized by mass spectroscopy. C19junΔhep protein was prepared by changing human c-jun residues Arg276, Arg279, Lys285, and Lys288 in the leucine zipper domain to glutamines. Expression, purification, and characterization was as for C19jun. […] The extracellular ligand-binding domain of human FGFR Ic (residues 1-377) and human erythropoietin receptor (residues 1-250) were fused to the Fc region of human IgG1, expressed in baculovirus and purified by protein A affinity chromatography. […] PDGF receptor Fc fusion protein was from R&D Systems.

[4] = Binding to heparin agarose beads

In the case of `CC[C@H](C)[C@@H]1NC(=O)[C@H](CCCCN)NC(=O)[C@H]([C@@H](C)O)NC(=O)[C@H](Cc2c[nH]c3ccccc23)NC(=O)[C@H](C)NC(=O)[C@H](CO)NC(=O)[C@H](CC(=O)O)NC(=O)[C@H]([C@@H](C)O)NC(=O)[C@H](Cc2ccccc2)NC(=O)[C@H](C(C)C)NC(=O)[C@H](CC(C)C)NC(=O)[C@H](C(C)C)NC(=O)[C@@H](NC(=O)[C@H](Cc2ccc(O)cc2)NC(=O)[C@H](CC(=O)O)NC(=O)[C@H](CC(=O)O)NC(=O)CNC(=O)[C@H](CO)NC(=O)[C@H](CCC(=O)O)NC(=O)[C@H](C)N)CSSC[C@@H](C(=O)N[C@@H](CC(=O)O)C(=O)N[C@@H](Cc2c[nH]c3ccccc23)C(=O)N[C@@H](CO)C(=O)N[C@@H](Cc2c[nH]cn2)C(=O)N[C@@H](Cc2ccccc2)C(=O)N[C@@H](CCCNC(=N)N)C(=O)N[C@@H](CC(N)=O)C(=O)O)NC1=O` [C19 synthetic peptide] (HELM PEPTIDE1{A.E.S.G.D.D.Y.C.V.L.V.F.T.D.S.A.W.T.K.I.C.D.W.S.H.F.R.N}$PEPTIDE1,PEPTIDE1,8:R3-21:R3$$$V2.0; N-terminus and C-terminus assumed), the “mitogenic activity in Swiss 3T3” value (Swiss 3T3 fibroblasts) is reported as “did not induce mitogenesis even at high concentrations”.

For TLVCDTVLEGQWRVCNWE [F12 clone], the IC50 [1] was about 12 nM.

With “bFGF: basic fibroblast growth factor, natural FGF receptor ligand used as comparator [reference compound]” the “neurite outgrowth / PC12 cell differentiation” value (PC12 cells) was “appearance of neurite extensions”, the FGFR autophosphorylation (FGFR) was “induced” and the “c-fos mRNA expression in FGFR-expressing L6 cells” value [2] was “stimulated c-fos mRNA expression”. For the same molecule, the EC50 (Swiss 3T3 fibroblasts; Swiss 3T3, 15 U/ml heparin, FIG. 3, read-out: EC50 stimulation of mitogenesis (BrdU incorporation)) was 0.14 nM, the MAP kinase phosphorylation [3] was “induced” and the “c-fos mRNA expression in control L6 cells” value (control L6 cells) was “neither was active”.

With “jun leucine zipper only: Protein representing the linker segments and c-jun leucine zipper without the C19 sequence (RIARLEEKVKTLKAQNSELASTANMLREQVAQLKQKVMN; not fully specified) [reference compound]” the Kd (FGFR1c ECD; BIAcore, approximate, read-out: KD, apparent affinity for immobilized FGFR1c ECD) was over 10000 nM, the “mitogenic activity in Swiss 3T3” value (Swiss 3T3 fibroblasts; listed as Deletion of the C19 sequence from the fusion protein) was “abrogated mitogenic activity” and the “mitogenic activity in Swiss 3T3” value (Swiss 3T3 fibroblasts; listed as control protein) was “had no effect”.

B1: F12jun: F12 sequence fused to GGGS linker, c-jun leucine zipper flanked by cysteines, polyhistidine tag; SEQ ID NO:43 (protein)
chain: MATLVCDTVLEGQWRVCNWEGPGGGSGGGSGGGSGGGSGGGSRCGGRIARLEEKVKTLKAQNSELASTANMLREQVAQLKQKVMNGGCGGSGGHHHHHH
Work on B1 yielded an EC50 (Swiss 3T3 fibroblasts; Swiss 3T3, 18 hrs, 15 U/ml heparin, FIG. 6, read-out: EC50 mitogenic activity (BrdU incorporation)) of about 1.7 nM.

B2: C19junΔhep: C19jun with c-jun residues Arg276, Arg279, Lys285, Lys288 in the leucine zipper changed to glutamines (protein)
chain: MAESGDDYCVLVFTDSAWTKICDWSHFRNGPGGGSGGGSGGGSGGGSGGGSRCGGQIAQLEEKVQTLQAQNSELASTANMLREQVAQLKQKVMNHGGCGGSGGHHHHHH
With B2 the “binding to immobilized FGFR ECD” value (FGFR1c ECD; in vitro) was “same apparent affinity as C19jun”, the “mitogenic activity in Swiss 3T3” value (Swiss 3T3 fibroblasts) was “inactive” and the heparin binding [4] was “very low affinity for heparin”.
